Legend:
Propionibacterium acnes = assay: MIC test of P. acnes (broth dilution, OD595); assay type: cell-based; design: key: +: Growth Inhibition; —: No Growth Inhibition; conditions: anaerobic, 37° C., 96 hours
Method: Prepared DM stock solution in 500,000 ppm (50%). Added 0.25 g DM into […] DMSO and stirred until mixed well. Then serial diluted 500,000 ppm DM. Centrifuged 5 ml Propionibacterium acnes in RCM (Reinforced Clostridial Medium) culture. Adjusted concentration of bacteria cell in medium by 20 times dilution about OD595=0.1×10^6 CFU/ml. Dispersed 200 μl bacteria cell in medium in aliquot to each 96-well plate. Mixed medium including bacteria cell and 2 μl DM, triplicate tests at each concentration. Bacteria cultured under anaerobic at 37° C. for 96 hours and measured the value at OD595. MIC meant the lowest concentration of anti-bacterial agent that sufficient to suppress the growth of bacteria (e.g. growth inhibition).

IL-6 = assay: LPS-induced macrophage release of IL-6 (THP-1, ELISA); assay type: cell-based, human; conditions: pretreated 1 hour, various concentrations, then LPS 24 hours
Method: (§1) The monocytic THP-1 cells were cultured and differentiated into macrophages. The macrophages were pretreated with various concentrations of Dextromethophan or naloxone for 1 hour and subsequently incubated with lipopolysaccharide (LPS) for 24 hours.
(§2) RPMI 1640 medium, phorbol 12-myristate-13-acetate (PMA), LPS (Escherichia coli 0111:B4) and naloxone were purchased from Sigma. The human THP-1 monocytic cell line was purchased from Food Industry Research and Development Institute, Hsin Chu, Taiwan. Levels of tumor necrosis factor-α (TNF-α), interleukin-6 (IL-6) and monocyte chemoattractant protein-1 (MCP-1) in medium were determined with monoclonal antibody based ELISA kits purchased from R&D Systems (Minneapolis, Minn., USA), and all animal experiments were approved by the Institutional Animal Care and Use Committee.
(§3) The THP-1 cells were grown in RPMI-1640 medium containing 10% fetal bovine serum at 37° C. in 5% CO2. […] The levels of TNF-α, IL-6 and MCP-1 in the supernatants were determined using ELISA kits.
The inflammatory reaction can be inhibited by dextromethorphan at less than 0.01 μM. The THP-1 cell treated with LPS at 1 Unit/ml in the presence of dextromethorphan for 24 hrs and the TNF-α and IL-6 released in the culture medium was measured with ELISA (FIG. 1). […] The results are expressed as mean±SD of 3 experiments. ** p<0.01 and *** p<0.001 are compared with the LPS-treated cultures. […]

MCP-1 = assay: LPS-induced macrophage release of MCP-1 (THP-1, ELISA); assay type: cell-based, human; conditions: pretreated 1 hour, various concentrations, then LPS 24 hours
Method: as §1, §2
as §3, with “CO2. The cells were differentiated to macrophages after treatment with 100 nM PMA to the culture for 24 hours.” for “CO2.”
(§4) Effect of naloxone treatment on the LPS-induced macrophage release of TNF-α (A), IL-6 (B) and MCP-1 (C). […] The results are expressed as mean±SD of 3 experiments. * p<0.05; ** p<0.01; *** p<0.001 compared with the LPS-treated cultures (FIG. 2).

TNF-α = assay: LPS-induced macrophage release of TNF-α (THP-1, ELISA); assay type: cell-based, human; conditions: for concentration of TNF-α in the medium of THP-1 cells after LPS stimulation: pretreated 1 hour, various concentrations, then LPS 24 hours
Method: as §1, §2
The THP-1 cells were grown in RPMI-1640 medium containing 10% fetal bovine serum at 37° C. in 5% CO2. The cells were differentiated to macrophages after treatment with 100 nM PMA to the culture for 24 hours. The cell suspension (5×10^5) was added in 0.5 mL into each well of the tissue culture plates. LPS was dissolved in sterile water and stored at −70[…] in aliquots. In treatment group, the THP-1 cell culture was pretreated for 1 hour with various concentrations of dextromethorphan or naloxone and followed by treatment with 10 μg/mL LPS for up to 24 hours. […] The levels of TNF-α, IL-6 and MCP-1 in the supernatants were determined using ELISA kits.
The inflammatory reaction can be inhibited by dextromethorphan at less than 0.01 μM. The THP-1 cell treated with LPS at 1 Unit/ml in the presence of dextromethorphan for 24 hrs and the TNF-α and IL-6 released in the culture medium was measured with ELISA (FIG. 1). […] The results are expressed as mean±SD of 3 experiments. ** p<0.01 and *** p<0.001 are compared with the LPS-treated cultures.
as §4

P. acnes = assay: DM disc diffusion on P. acnes lawn; assay type: cell-based, Propionibacterium acnes; conditions: 37° C., 96 hours
Method: Spread 0.1 ml medium including bacteria cells which OD595 value was about 0.1×10^6 CFU/ml onto RCM agar plate. Pasted 0.8 cm filter paper and dropped 20 μl of DM into it. Bacteria were cultured under anaerobic at 37° C. for 96 hours and the size of the antibiotic circle was measured.

[1] = humans, oral dosage form, either alone or with quinidine; cited from earlier work
Bacteroides fragilis = assay: MIC test of B. fragilis (thioglycollate broth); assay type: cell-based; design: key: +: Growth Inhibition; —: No Growth Inhibition; conditions: anaerobic, 24 h
Method: Bacteroides fragilis growing in 18-24 hours in the anaerobic thioglycollate broth was used to formulate the suspension of bacteria cells of McFarland 0.5. Diluted 0.5 g/ml DMSO stock solution with anaerobic Thioglycollate broth. Added 1000 μl anaerobic Thioglycollate broth into 1000 μl of DM diluent with 1:1 ratio, and then put into the anaerobic incubator to incubate for 24 h.

TNF-a = conditions: LPS-induced endotoxemia in rodents; mitigation of circulatory failure and mortality; cited from earlier work
Staphylococcus aureaus = assay: DM disc diffusion on S. aureus lawn; assay type: cell-based; conditions: S. aueaus lawn, 37° C., 96 hours
Method: Based for antimicrobial disk diffusion Susceptibility Testing is Mueller Hinton II agar obtained from Becton, Dickinson and Company, France.
Prepared Mueller-Hinton-II-agar by suspending 38 g of the powder in 1L of double-distilled water. Autoclaved the agar at 121° C. for 15 min. The agar was poured into each agar plate and waited for solidifying. S. aureaus of 10^5 CFU in 100 μl medium were spread on the agar plate and were grown for 96 hours.

E. coli = assay: DM disc diffusion on E. coli lawn; assay type: cell-based; conditions: 37° C., 96 hours
Method: Base for antimicrobial disk diffusion Susceptibility Testing is made of Mueller Hinton II agar obtained from Becton, Dickinson and Company, France.
Prepared Mueller-Hinton-II-agar by suspending 38 g of the powder in 1L of double-distilled water. Autoclaved the agar at 121° C. for 15 min. t The agar was poured into each agar plate and waited for solidifying. E. coli of 1×10^5 CFU in 100 μl medium was spread on to the agar plate and were grown for 96 hours.

## COc1ccc2c(c1)[C@]13CCCC[C@@H]1[C@H](C2)N(C)CC3 [DM, (+)-3-methoxy-17-methyl-9a,13a,14a-morphinan]
Propionibacterium acnes; DM 125 ppm (0.0125%)
  Growth Inhibition: —
Propionibacterium acnes; DM 250 ppm (0.025%)
  Growth Inhibition: —
Propionibacterium acnes; DM 500 ppm (0.05%)
  Growth Inhibition: +
Propionibacterium acnes; DM 1000 ppm (0.1%)
  Growth Inhibition: +
Propionibacterium acnes; DM 1250 ppm (0.125%)
  Growth Inhibition: +
Propionibacterium acnes; DM 2500 ppm (0.25%)
  Growth Inhibition: +
Propionibacterium acnes; DM 5000 ppm (0.5%)
  Growth Inhibition: +
IL-6
  concentration of IL-6 in the medium of THP-1 cells after LPS stimulation: significantly reduced
MCP-1
  concentration of MCP-1 in the medium of THP-1 cells after LPS stimulation: significantly reduced
TNF-α; THP-1 cell treated with LPS for 24 hrs, TNF-α and IL-6 released in medium measured with ELISA
  concentration at which the inflammatory reaction can be inhibited: less than 0.01 μM
TNF-α
  concentration of TNF-α in the medium of THP-1 cells after LPS stimulation: significantly reduced
P. acnes; 2.5% DM, Disc No. 6, anaerobic
  Diameter of clear zone: 12 mm
P. acnes; 5% DM, Disc No. 5, anaerobic
  Diameter of clear zone: 34 mm
[1]
  well tolerated oral dosage: up to 120 milligrams (mg) per day
Bacteroides fragilis; DM 500 ppm (0.05%)
  Growth Inhibition: —
Bacteroides fragilis; DM 1000 ppm (0.1%)
  Growth Inhibition: —
Bacteroides fragilis; DM 1250 ppm (0.125%)
  Growth Inhibition: +
Bacteroides fragilis; DM 2500 ppm (0.25%)
  Growth Inhibition: +
Bacteroides fragilis; DM 5000 ppm (0.5%)
  Growth Inhibition: +
TNF-a
  effect on TNF-a, NO and superoxide anion: inhibits
Staphylococcus aureaus; 5% DM
  Diameter of clear zone: 10 mm
Staphylococcus aureaus; 10% DM
  Diameter of clear zone: 14 mm
E. coli; 2.5% DM
  Diameter of clear zone: 9.5 mm
E. coli; 5% DM
  Diameter of clear zone: 13 mm
E. coli; 10% DM
  Diameter of clear zone: 18 mm

## Oc1cc(Cl)ccc1Oc1ccc(Cl)cc1Cl [Triclosan]
P. acnes; 0.1% Triclosan, Disc No. 8, anaerobic
  Diameter of clear zone: 30 mm

## C=CCN1CC[C@]23c4c5ccc(O)c4O[C@H]2C(=O)CC[C@@]3(O)[C@H]1C5 [naloxone, 17-allyl-4,5α-epoxy-3,14-dihydroxymorphinan-6-one]
IL-6
  concentration of IL-6 in the medium of THP-1 cells after LPS stimulation: significantly reduced
MCP-1
  concentration of MCP-1 in the medium of THP-1 cells after LPS stimulation: significantly reduced
TNF-α
  concentration of TNF-α in the medium of THP-1 cells after LPS stimulation: significantly reduced

Source: patent US7939567B2, “Dextromethorphan-based method for treating acne” (Blue Blood Biotech Corp., priority 2006, dated 2011)
